This is an account of results in patent US20060185411A1, “Calcium polysulfide, potassium polysulfide, calcium thiosulfate, and magnesium thiosulfate as urease inhibitors” (Tessenderlo Kerley, Inc., priority 2005, published 2006).

Like-named read-outs stand apart in the source and are kept apart here.

Data set [1] has as its system soil urease. The following applies: surface application of urea; literature; cited from earlier work.
A short description of data set [2]: pH of the solutions of urea and additive compound. Particulars: urea-only solution. Type of data set: physicochemical.
Data set [3] deals with urease. Description: Ammonia volatilization from soil-applied urea solution with additive compound (continuous air purge, ammonia collected in sulfuric acid, indophenol blue method). On the procedure:
The amount of additive compound set forth in Table 1 below was added to a solution of reagent grade urea having a urea concentration of 13850 micrograms of nitrogen per 2 ml, together with the desired amount of compound. This urea concentration was selected to be equivalent to an application rate of 100 lbs of nitrogen per acre. A standard sample containing only urea in the same concentration and an unfertilized blank (2 ml of distilled water) also were applied to soil.
The amounts of additive compound were calculated to provide the desired quantity of that compound appropriate for application of a 50 percent w/v solution of urea (i.e., 50 grams of urea per 100 ml of water) to supply 100 lbs of nitrogen per acre. Each additive compound was used at 5 and 10 percent of the volume of urea solution. The treatments were therefore equivalent to the application 198 liters (52.3 US gallons) of urea solution per acre together with 9.9 liters (2.6 US gallons) of additive compound at the low rate or 19.8 liters (5.2 US Gallons) at the high rate.
Soil was treated and ammonia measurements were taken in accordance with the following method. Plastic containers with a diameter of 4.2 cm were used for this study. Each container was filled with 60 g of a sandy soil and moistened with 12 mls water to 86% of its water holding capacity. All treatments were surface applied in 2 mls of solution, bringing the moisture level up to field capacity.
The air was humidified before introduction by bubbling it through distilled water, then passing it through a cotton plug to remove moisture droplets. Evolved ammonia was collected by passing the air through 50 mls of 0.5 M sulfuric acid. This was sufficient to collect 3 times the total amount of nitrogen added, ensuring that the solution never became saturated with ammonia. The amounts of ammonia collected in the sulfuric acid solutions were determined by the indophenol blue method.
Ammonia measurements were taken at 2 and 7 days after application. […] The amounts of ammonia collected are expressed as a percentage of the total that was applied.
The amount of additive compound set forth in Table 3 below was added to a solution of reagent grade urea having a urea concentration of 13850 micrograms of nitrogen per 2 ml, together with the desired amount of compound. This urea concentration was selected to be equivalent to an application rate of 100 lbs of nitrogen per acre. A standard sample containing only urea in the same concentration and an unfertilized blank (2 ml of distilled water) also were applied to soil.
The amounts of additive compound were calculated to provide the desired quantity of that compound appropriate for application of a 50 percent w/v solution of urea (i.e., 50 grams of urea per 100 ml of water) to supply 100 lbs of nitrogen per acre. The urea and additive compounds were applied to soil in accordance with the method described in Example 1.
Calcium polysulfide solution was added at a rate of 1, 2, 4 and 8 percent of the volume of urea solution. K-Sul® was added at a rate of 5 and 10 percent of the volume of urea solution. Ammonia measurements were taken at 2 and 7 days after application. […] The amounts of ammonia collected are expressed as a percentage of the total that was applied.
In each treatment, the appropriate amount of product was added to a solution of reagent grade urea and made to 100 mls in volumetric flasks. Concentrations were adjusted to ensure that the 2 mls of each solution provided 13850 micrograms of nitrogen together with the required amount of product to provide the equivalent of an application rate of 100 lbs of nitrogen per acre. A standard sample contained only urea and an unfertilized blank was treated with 2 mls of distilled water.

Data set [4] has as its system urease. Particulars: Example 6.
Data set [5] relates to nitrification. The following applies: combination with UAN or banded urea solution; literature; cited from earlier work.
[6] abbreviates: Example 1, urea only, no additive.
The mark [7] stands for this setting: Example 3, urea only, no additive.
[8] abbreviates: Example 5, urea only, no additive.

In the case of `[Ca+2].[Cl-].[Cl-]` [Calcium chloride], in data set [1], the “effect on ammonia volatilization (in words)” value was “delays the start of ammonia volatilization”.
On to `NC(N)=O` [Urea], for which the “Solution pH” value in data set [2] (Example 2) is 8.4. Moreover, the “Solution pH” value in data set [2] (Example 4) is on record as 9.0. For the same compound, in data set [3] (setting [6]), the “% Loss 0-2 days” value is given as 22.0%, the “% Loss 3-7 days” value stood at 3.9% and the “% Loss Total” value is on record as 25.9%. In data set [3] (setting [7]), the “% lost 0-2 days” value was found to be 25.56%, the “% lost 3-7 days” value was 11.45% and the “% lost Total” value amounted to 37.01%. Further, in data set [3] (setting [8]), the “% lost 0-2 days” value is on record as 25.50%, the “% lost 3-7 days” value amounted to 8.25% and the “% lost Total” value turned out to be 33.75%. Further, in data set [4] (100 lbs N per ac), the “% of N applied” value turned out to be 2.07%; the “Ammonia collected, mg Day 2” value came out at 0.14 mg; the “Ammonia collected, mg Day 7” value was determined as 2.32 mg; the “Ammonia collected, mg Day 14” value is 0.78 mg. In data set [4] (100 lbs N per ac), the “Ammonia collected, mg Day 21” value is given as 0.00 mg; the “Ammonia collected, mg Day 28” value is on record as 0.00 mg; the “Ammonia collected, mg Total” value worked out at 3.25 mg. Besides, in data set [4] (200 lbs N per ac), the “% of N applied” value came out at 3.17%; the “Ammonia collected, mg Day 2” value worked out at 0.31 mg; the “Ammonia collected, mg Day 7” value came out at 4.86 mg; the “Ammonia collected, mg Day 14” value came to 4.31 mg. For the same compound, in data set [4] (200 lbs N per ac), the “Ammonia collected, mg Day 21” value is listed as 0.47 mg; the “Ammonia collected, mg Day 28” value turned out to be 0.00 mg; the “Ammonia collected, mg Total” value was determined as 9.94 mg.
As to ammonium polyphosphate, the “effect on nitrification (in words)” value in data set [5] is reported as “only a weak effect”.
With ammonium polysulfide, in data set [5], the “effect on nitrification (in words)” value was “no effect on nitrification”. In data set [3] (summary of Examples 1-4), the “urease inhibition and ammonia volatilization inhibition, comparison between products (in words)” value is listed as “less urease inhibition activity than calcium polysulfide”.
